The target of the experiment is Beta-lactamase (Enterobacter cloacae, UniProt P05364). In words: Inhibitory activity against Class C beta-lactamase.
Sequence of Beta-lactamase (P05364 whole entry): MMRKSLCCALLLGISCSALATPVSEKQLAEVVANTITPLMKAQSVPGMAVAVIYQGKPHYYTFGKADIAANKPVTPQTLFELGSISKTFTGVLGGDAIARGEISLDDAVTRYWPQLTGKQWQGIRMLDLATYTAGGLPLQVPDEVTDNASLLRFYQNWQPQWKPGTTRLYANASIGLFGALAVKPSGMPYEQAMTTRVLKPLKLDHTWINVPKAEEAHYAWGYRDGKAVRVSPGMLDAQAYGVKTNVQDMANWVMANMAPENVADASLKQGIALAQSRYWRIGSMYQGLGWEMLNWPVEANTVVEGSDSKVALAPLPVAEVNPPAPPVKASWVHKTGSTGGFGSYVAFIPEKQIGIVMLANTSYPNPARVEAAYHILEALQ
Take `NNC(=O)/C=C/C1=C(C(=O)O)N2C(=O)/C(=C/c3ccccn3)[C@H]2S(=O)(=O)C1`: half-maximal inhibition (IC50) required 1100 nM.
With `O=C(O)C1=C(I)CS(=O)(=O)[C@@H]2/C(=C\c3ccccn3)C(=O)N12`, half-maximal inhibition (IC50) was put at 4.7 nM.
The result for `O=C(O)C1=C(Br)CS(=O)(=O)[C@@H]2/C(=C\c3ccccn3)C(=O)N12` reads 2.9 nM; that for `O=C(/C=C/C1=C(C(=O)O)N2C(=O)/C(=C/c3ccccn3)[C@H]2S(=O)(=O)C1)NCc1ccccc1`, 110 nM.
The compound `O=C(/C=C/C1=C(C(=O)O)N2C(=O)/C(=C/c3ccccn3)[C@H]2S(=O)(=O)C1)NC1CC1` displayed a half-maximal inhibitory concentration (IC50) of 824 nM.
As to `O=C(O)C1=C(c2cccs2)CS(=O)(=O)[C@@H]2/C(=C\c3ccccn3)C(=O)N12`, the half-maximal inhibitory concentration (IC50) was 40.3 nM.
As for `NCCCNC(=O)/C=C/C1=C(C(=O)O)N2C(=O)/C(=C/c3ccccn3)[C@H]2S(=O)(=O)C1`, the 50% inhibitory concentration (IC50) amounted to 4200 nM.
The result for `O=C(O)C1=C(Sc2ccccc2)CS(=O)(=O)[C@@H]2/C(=C\c3ccccn3)C(=O)N12` reads 21.7 nM; that for `CS(=O)(=O)C1=C(C(=O)O)N2C(=O)/C(=C/c3ccccn3)[C@H]2S(=O)(=O)C1`, 90.7 nM.
To `O=C(O)C1=CCS(=O)(=O)[C@@H]2/C(=C\c3ccccn3)C(=O)N12` belongs 116 nM; to `O=C(O)C1=C(Cl)CS(=O)(=O)[C@@H]2/C(=C\c3ccccn3)C(=O)N12`, 3 nM; to `O=C(O)C1=C(S(=O)(=O)c2ccccc2)CS(=O)(=O)[C@@H]2/C(=C\c3ccccn3)C(=O)N12`, 174 nM.
The result for `O=C(/C=C/C1=C(C(=O)O)N2C(=O)/C(=C/c3ccccn3)[C@H]2S(=O)(=O)C1)NO` reads 128 nM; that for `O=C(O)CNC(=O)/C=C/C1=C(C(=O)O)N2C(=O)/C(=C/c3ccccn3)[C@H]2S(=O)(=O)C1`, 310 nM.
The compound `N=C(N)NCCNC(=O)/C=C/C1=C(C(=O)O)N2C(=O)/C(=C/c3ccccn3)[C@H]2S(=O)(=O)C1` returned an IC50 of 5.5 nM.
The result for `O=C(/C=C/C1=C(C(=O)O)N2C(=O)/C(=C/c3ccccn3)[C@H]2S(=O)(=O)C1)Nc1ccc(O)cc1` reads 35 nM; that for `O=C(/C=C/C1=C(C(=O)O)N2C(=O)/C(=C/c3ccccn3)[C@H]2S(=O)(=O)C1)Nc1c(F)c(F)c(F)c(F)c1F`, 127 nM.
As for `O=C(O)C1=C(c2ccccc2)CS(=O)(=O)[C@@H]2/C(=C\c3ccccn3)C(=O)N12`, half-maximal inhibition (IC50) required 38 nM.
In the case of `O=C(O)C1=C(C(=O)O)N2C(=O)/C(=C/c3ccccn3)[C@H]2S(=O)(=O)C1`, half-maximal inhibition (IC50) was put at 32 nM. The IC50 values of the last two compounds are within 1.5-fold of each other.
Turning to `NC(=O)/C=C/C1=C(C(=O)O)N2C(=O)/C(=C/c3ccccn3)[C@H]2S(=O)(=O)C1`, the IC50 stood at 22 nM. The IC50 values of the last two compounds are within 1.5-fold of each other.
The result for `CN1CCN(C(=O)/C=C/C2=C(C(=O)O)N3C(=O)/C(=C/c4ccccn4)[C@H]3S(=O)(=O)C2)CC1` reads 6340 nM; that for `O=C(/C=C/C1=C(C(=O)O)N2C(=O)/C(=C/c3ccccn3)[C@H]2S(=O)(=O)C1)NCC(F)(F)F`, 1180 nM.
Consider `O=C(/C=C/C1=C(C(=O)O)N2C(=O)/C(=C/c3ccccn3)[C@H]2S(=O)(=O)C1)NCCO`, for which the IC50 was 212 nM.
The result for `CSC1=C(C(=O)O)N2C(=O)/C(=C/c3ccccn3)[C@H]2S(=O)(=O)C1` reads 59 nM.
As for `O=C(O)C1=C(F)CS(=O)(=O)[C@@H]2/C(=C\c3ccccn3)C(=O)N12`, the midpoint of inhibition, the IC50, lay at 11 nM.

A word on the IC50: it is the point on the concentration scale where inhibition reaches its midpoint.

The values are drawn from ChEMBL document CHEMBL1135153, “Cephalosporin-derived inhibitors of beta-lactamase. Part 4: The C3 substituent” (Bioorg Med Chem Lett, 2002).
